Tested on: HBV
Test: HepAD38 antiviral assay: reduction of viral product accumulation (virion DNA by qPCR, HBsAg or HBeAg by ELISA)
Type: cell-based, hepatitis B virus
Settings: Hepatitis B virus, HePAD38, 120 h, HepAD38 cells, five days after compound addition; concentration reducing viral product accumulation by 50% relative to no drug controls; read-out: HepAD38 EC50
Protocol: Methods: HepAD38 cells are maintained as previously reported (Ladner et al, Antimicrob. Agents Chemother. 1997, […], 1715). Briefly, cells are passaged upon attaining confluency in DMEM/F12 media in the presence of 10% FBS, Penn/Strep, 250 μg/mL G418, and 1 ug/ml tetracycline. Novel compounds are screened by first washing cells three times with PBS to remove tetracycline, and plating in 96 well plates at 35,000 cells/well. Compounds dissolved in DMSO are then diluted 1:200 into wells containing cells. Five days after compound addition, material is harvested for analysis. For an extended 8 day analysis, cells are plated and treated as described above, but media and compound are refreshed on d2 and d5 post initial treatment.
On harvest day, virion DNA is obtained by lysing with Sidestep Lysis and Stabilization Buffer and then quantified via quantitative real time PCR. Commercially available ELISA kits are used to quantitate the viral proteins HBsAg (Alpco) or HbeAg (US Biological) by following the manufacturer's recommended protocol after diluting samples to match the linear range of their respective assays. Irrespective of readout, compound concentrations that reduce viral product accumulation in the cell lysates or supernatants by 50% relative to no drug controls (EC50) are reported; EC50 ranges are as follows: A<0.1 μM; B 0.1-0.4 μM; C>0.4 μM.

SMILES | EC50 [nM]
O=C(Nc1cc(F)c(F)c(F)c1)c1ccc(Cl)c(S(=O)(=O)[C@@H]2CCC[C@H](O)C2)c1 (racemic) [Example 58] | > 400
O=C(Nc1cc(F)c(F)c(F)c1)c1ccc(Cl)c(S(=O)(=O)C2CCC3(CC2)OCCO3)c1 [Example 1] | 100 to 400
O=C1CCC(S(=O)(=O)c2cc(C(=O)Nc3cc(F)c(F)c(F)c3)ccc2Cl)CC1 [Example 2] | 100 to 400
C[C@H](NC(=O)OC(C)(C)C)C(=O)O[C@H]1CC[C@H](S(=O)(=O)c2cc(C(=O)Nc3cc(F)c(F)c(F)c3)ccc2Cl)CC1 [Example 5] | 100 to 400
C[C@H](N)C(=O)O[C@H]1CC[C@H](S(=O)(=O)c2cc(C(=O)Nc3cc(F)c(F)c(F)c3)ccc2Cl)CC1 [Example 6] | 100 to 400
O=C(Nc1cc(F)c(F)c(F)c1)c1ccc(Cl)c(S[C@H]2CC[C@H](O)CC2)c1 [Example 10] | 100 to 400
O=C(Nc1cc(F)c(F)c(F)c1)c1ccc(Cl)c(SC2CCCCC2)c1 [Example 11] | > 400
O=C(Nc1cc(F)c(F)c(F)c1)c1ccc(Cl)c(S(=O)(=O)C2CCCCC2)c1 [Example 12] | 100 to 400
CCCSc1cc(C(=O)Nc2cc(F)c(F)c(F)c2)ccc1Cl [Example 13] | > 400
COc1cc(C(=O)Nc2cc(F)c(F)c(F)c2)ccc1Cl [Example 14] | > 400
CCCS(=O)(=O)c1cc(C(=O)Nc2cc(F)c(F)c(F)c2)ccc1Cl [Example 15] | 100 to 400
Cc1c(NC(=O)c2ccc(Cl)c(S(=O)(=O)[C@]3(C)CC[C@H](O)CC3)c2)cc(F)c(F)c1F [Example 18] | 100 to 400
Cc1c(NC(=O)c2ccc(Cl)c(S(=O)(=O)[C@]3(C)CC[C@@H](O)CC3)c2)cc(F)c(F)c1F [Example 19] | > 400
O=C(Nc1cc(F)c(F)c(F)c1)c1ccc(Cl)c(S(=O)(=O)C2CC=CCC2)c1 (stereo not shown) [Example 20] | 100 to 400
O=C(Nc1cc(F)c(F)c(F)c1)c1ccc(Cl)c(S(=O)(=O)[C@H]2CC[C@H](F)CC2)c1 [Example 21] | 100 to 400
C[C@]1(O)CC[C@@H](S(=O)(=O)c2cc(C(=O)Nc3cc(F)c(F)c(F)c3)ccc2Cl)CC1 [Example 22] | 100 to 400
C[C@]1(O)CC[C@H](S(=O)(=O)c2cc(C(=O)Nc3cc(F)c(F)c(F)c3)ccc2Cl)CC1 [Example 23] | 100 to 400
O=C(Nc1ccnc(Cl)c1)c1ccc(Cl)c(S(=O)(=O)[C@H]2CC[C@H](O)CC2)c1 [Example 24] | > 400
O=C(Nc1cc(F)c(F)c(F)c1)c1ccc(Cl)c(O[C@H]2CC[C@H](O)CC2)c1 [Example 25] | > 400
COc1cc(NC(=O)c2ccc(Cl)c(S(=O)(=O)[C@H]3CC[C@H](O)CC3)c2)ccc1F [Example 26] | > 400
O=C(Nc1cc(F)c(F)c(F)c1)c1ccc(Cl)c(S(=O)(=O)Cc2ccccc2)c1 [Example 27] | > 400
O=C(Nc1cc(F)c(F)c(F)c1)c1ccc(Cl)c(SCC2CCCCC2)c1 [Example 28] | > 400
O=C1CCCC(S(=O)(=O)c2cc(C(=O)Nc3cc(F)c(F)c(F)c3)ccc2Cl)C1 (stereo not shown) [Example 29] | > 400
O=C1CCCC(S(=O)(=O)c2cc(C(=O)Nc3cc(F)c(F)c(F)c3)ccc2Cl)CO1 (stereo not shown) [Example 30] | > 400
O=C(Nc1cc(F)c(F)c(F)c1)c1ccc(Cl)c(S(=O)(=O)[C@@H]2CC[C@H](O)C2)c1 [Example 31] | 100 to 400
O=C(Nc1cc(F)c(F)c(F)c1)c1ccc(Cl)c(SCc2ccccn2)c1 [Example 32] | > 400
O=C1CC(S(=O)(=O)c2cc(C(=O)Nc3cc(F)c(F)c(F)c3)ccc2Cl)C1 [Example 33] | > 400
O=C(Nc1cc(F)c(F)c(F)c1)c1ccc(Cl)c(S(=O)(=O)[C@H]2C[C@@H](O)C2)c1 [Example 34] | > 400

SMILES | EC50 [nM]
O=C(Nc1cc(F)c(F)c(F)c1)c1ccc(Cl)c(SCc2cccnc2)c1 [Example 35] | > 400
O=C(Nc1cc(F)c(F)c(F)c1)c1ccc(Cl)c(S(=O)(=O)CC2CCCCC2)c1 [Example 36] | > 400
O=C(Nc1cc(F)c(F)c(F)c1)c1ccc(Cl)c(S(=O)(=O)Cc2cccc[n+]2[O-])c1 [Example 37] | > 400
O=C(Nc1cc(F)c(F)c(F)c1)c1ccc(Cl)c(SCc2ccncc2)c1 [Example 38] | > 400
C=C1CC2CCC(C1)C2Sc1cc(C(=O)Nc2cc(F)c(F)c(F)c2)ccc1Cl (stereo not shown) [Example 39] | > 400
COc1cc(NC(=O)c2ccc(Cl)c(S(=O)(=O)[C@H]3CC[C@H](O)CC3)c2)ccn1 [Example 40] | > 400
N#Cc1cc(NC(=O)c2ccc(Cl)c(S(=O)(=O)[C@H]3CC[C@H](O)CC3)c2)ccc1F [Example 41] | > 400
O=C(Nc1cc(F)c(F)cn1)c1ccc(Cl)c(S(=O)(=O)[C@H]2CC[C@H](O)CC2)c1 [Example 43] | > 400
O=C(Nc1cc(F)c(F)c(F)c1)c1ccc(Cl)c(S(=O)(=O)[C@H]2C3CCC2C[C@@H](O)C3)c1 [Example 44] | 100 to 400
O=C(Nc1cc(F)c(F)c(F)c1)c1ccc(Cl)c([S+]([O-])Cc2ccncc2)c1 (stereo not shown) [Example 47] | > 400
C=C1CC2CCC(C1)C2S(=O)(=O)c1cc(C(=O)Nc2cc(F)c(F)c(F)c2)ccc1Cl (stereo not shown) [Example 49] | 100 to 400
O=C(Nc1ccc(F)c(F)c1)c1ccc(Cl)c(S(=O)(=O)[C@H]2CC[C@H](O)CC2)c1 [Example 51] | 100 to 400
O=C(Nc1ccc(F)c(Cl)c1)c1ccc(Cl)c(S(=O)(=O)[C@H]2CC[C@H](O)CC2)c1 [Example 52] | 100 to 400
CS(=O)(=O)NC(=O)O[C@H]1CC[C@H](S(=O)(=O)c2cc(C(=O)Nc3cc(F)c(F)c(F)c3)ccc2Cl)CC1 [Example 53] | > 400
CC(C)(C)OC(=O)N[C@H]1CC[C@H](S(=O)(=O)c2cc(C(=O)Nc3cc(F)c(F)c(F)c3)ccc2Cl)CC1 [Example 54] | 100 to 400
CC(C)(C)OC(=O)N[C@H]1CC[C@H]([S+]([O-])c2cc(C(=O)Nc3cc(F)c(F)c(F)c3)ccc2Cl)CC1 (stereo partly shown) [Example 55] | > 400
N#Cc1cc(NC(=O)c2ccc(Cl)c(S(=O)(=O)[C@H]3CC[C@H](O)CC3)c2)ccn1 [Example 56] | > 400
O=C1CCC(S(=O)(=O)c2cc(C(=O)Nc3cc(F)c(F)c(F)c3)ccc2Cl)C1 (stereo not shown) [Example 57] | > 400
CC(C)(C)OC(=O)N1CCC(S(=O)(=O)c2cc(C(=O)Nc3cc(F)c(F)c(F)c3)ccc2Cl)CC1 [Example 59] | < 100
O=C(Nc1cc(F)c(F)c(F)c1)c1ccc(Cl)c(S[C@H]2CC[C@H](O)CC2)n1 [Example 61] | > 400
O=C(Nc1cc(F)c(F)c(F)c1)c1ccc(Cl)c(S(=O)(=O)[C@H]2CC[C@H](O)CC2)n1 [Example 62] | > 400
O=C(Nc1cc(F)c(F)c(F)c1)c1ccc(Cl)c(SC2CCC=CCC2)c1 [Example 63] | > 400
O=C(Nc1cc(F)c(F)c(F)c1)c1ccc(Cl)c([S+]([O-])C2CCC=CCC2)c1 (stereo not shown) [Example 64] | > 400
O=C(Nc1cccc(F)c1)c1ccc(Cl)c(S(=O)(=O)[C@H]2CC[C@H](O)CC2)c1 [Example 65] | > 400
O=C(Nc1ccc(F)cc1)c1ccc(Cl)c(S(=O)(=O)[C@H]2CC[C@H](O)CC2)c1 [Example 66] | > 400
O=C(Nc1cc(F)c(F)c(F)c1)c1ccc(Cl)c(SC2CCOCC2)c1 [Example 67] | > 400
O=C(Nc1cc(F)cc(F)c1)c1ccc(Cl)c(S(=O)(=O)[C@H]2CC[C@H](O)CC2)c1 [Example 68] | 100 to 400

— patent US10538532B2, “Hepatitis B antiviral agents” (ENANTA PHARMACEUTICALS, INC., priority 2016, dated 2020)
